Data taken from patent publication US7705029B2 (Synta Pharmaceuticals Corp., priority 2004, dated 2010).
Read-outs that look alike come from different tables or passages of the source.

System: IL-2 production in a Human Jurkat Cell Line
Assay: Inhibition of IL-2 production in PHA-stimulated Jurkat cells (IL-2 ELISA)
Type: cell-based
Settings: read-out: IC50 (concentration at which IL-2 release is inhibited by 50%)
Procedure: Jurkat cells (ATCC, Cat# TIB-152) were grown in RPMI1640 medium (ATCC, Cat# 30-2001) containing 10% of FBS (ATCC, Cat# 30-2020). For compound screening, Jurkat cells were plated in 96-well plates at a density of 0.5 million cells per well in RPMI1640 medium containing 1% of FBS. Then, various concentrations of each test compound were added to the cell plates followed by addition of PHA (Sigma, Cat# L-9017) at a final concentration of 2.5 μg/ml to stimulate IL-2 production. Cells were then incubated at 37° C. (+5% CO2) for 20 hours before ELISA assay. After 20 hours incubation, cell plates were centrifuged at 500-800 g for 5 minutes and the supernatants was collected for IL-2 detection using the human IL-2 ELISA kit purchased from Cell Sciences (Cat# 851.500.020). The ELISA assay for IL-2 production was done in 96-well plates using a protocol provided by Cell Sciences.
The IC50 (i.e., the concentration at which IL-2 release is inhibited by 50%) was determined and the results are shown in the Table. […] The designation “A” means an IC50 less than 0.010 μM; the designation B means an IC50 between 0.010 and 1.0 μM; and the designation “C” mean an IC50 greater than 1 μM.

IC50 (Jurkat cells, PHA 2.5 μg/ml, 20 hours incubation, human IL-2 ELISA of supernatant) [µM] | Compound | IC50 (Homo sapiens, Jurkat, 20 h) [µM]
 | Cc1cc(C(F)(F)F)n(-c2ccc(C=C(C#N)c3cc(F)cc(F)c3)cc2)n1 [Compound 22, 2-(3,5-Difluoro-phenyl)-3-[4-(3-methyl-5-trifluoromethyl-pyrazol-1-yl)-phenyl]-acrylonitrile] | 0.01 to 1
 | N#CC(=Cc1ccc(-n2ccc(-c3ccccc3)n2)cc1)C(=O)c1ccco1 [Compound 31, 2-(Furan-2-carbonyl)-3-[4-(3-phenyl-pyrazol-1-yl)-phenyl]-acrylonitrile] | > 1
 | N#CC(=Cc1ccc(-n2ccc(C(F)(F)F)n2)cc1)C(=O)c1cccc(F)c1F [Compound 38, 2-(2,3-Difluoro-benzoyl)-3-[4-(3-trifluoromethyl-pyrazol-1-yl)-phenyl]-acrylonitrile] | > 1
> 1 | N#CC(=Cc1ccccc1-n1nc(C(F)(F)F)cc1C(F)(F)F)c1cccc(F)c1F [Compound 14, 3-[2-(3,5-Bis-trifluoromethyl-pyrazol-1-yl)-phenyl]-2-(2,3-difluoro-phenyl)-acrylonitrile] | 
